Reference: the supplement of paper PMC10307832

Legend:
Test in all cases: relative viability (nuclei count vs DMSO), 5 days (fraction); higher = more cells survive
[1] = system: LXF-289
In short: (§1)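 Five library-drug doses in √10 steps were combined with a fixed anchor-drug dose, or a single drug was given alone, by pin tool to lung cancer cell lines in 1536-well plates the day after seeding. Nuclei were stained and counted after 5 days. Relative viability is the nuclei count in treated wells over that in vehicle wells, taken as the median of duplicate plates.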

[2] = system: NCI-H647
In short: as §1

[3] = system: NCI-H3122
In short: as §1

[4] = system: NCI-H2228
In short: as §1

[5] = system: NCI-H1395
In short: as §1

[6] = system: NCI-H727
In short: as §1

[7] = system: 201T
In short: as §1

[8] = system: NCI-H1437
In short: as §1

[9] = system: NCI-H1944
In short: as §1

[10] = system: HCC-827
In short: as §1

[11] = system: NCI-H1792
In short: as §1

[12] = system: NCI-H2405
In short: as §1

[13] = system: NCI-H322M
In short: as §1

[14] = system: CAL-12T
In short: as §1

[15] = system: RERF-LC-KJ
In short: as §1

[16] = system: NCI-H1793
In short: as §1

[17] = system: LCLC-97TM1
In short: as §1

[18] = system: BEN
In short: as §1

[19] = system: LCLC-103H
In short: as §1

[20] = system: SK-LU-1
In short: as §1

[21] = system: NCI-H2087
In short: as §1

CC(=O)O[C@@]12CO[C@@H]1C[C@H](O)[C@@]1(C)C(=O)[C@H](O)C3=C(C)[C@@H](OC(=O)[C@H](O)[C@@H](NC(=O)OC(C)(C)C)c4ccccc4)C[C@@](O)([C@@H](OC(=O)c4ccccc4)[C@H]21)C3(C)C [Docetaxel] + Cc1nc(NC(=O)N2CCC[C@H]2C(N)=O)sc1-c1ccnc(C(C)(C)C(F)(F)F)c1 [Alpelisib] (partner 2 µM)
relative viability ([1]; first compound 0.0002 µM): 1.09 | relative viability ([1]; first compound 0.000632 µM): 0.577 | relative viability ([1]; first compound 0.002 µM): 0.59 | relative viability ([1]; first compound 0.006325 µM): 0.119 | relative viability ([1]; first compound 0.02 µM): 0.0912 | relative viability ([2]; first compound 0.0002 µM): 0.903 | relative viability ([2]; first compound 0.000632 µM): 0.347 | relative viability ([2]; first compound 0.002 µM): 0.189 | relative viability ([2]; first compound 0.006325 µM): 0.0725 | relative viability ([2]; first compound 0.02 µM): 0.0507 | relative viability ([3]; first compound 0.0002 µM): 0.719 | relative viability ([3]; first compound 0.000632 µM): 0.753 | relative viability ([3]; first compound 0.002 µM): 0.764 | relative viability ([3]; first compound 0.006325 µM): 0.318 | relative viability ([3]; first compound 0.02 µM): 0.186 | relative viability ([4]; first compound 0.0002 µM): 0.329 | relative viability ([4]; first compound 0.000632 µM): 0.243 | relative viability ([4]; first compound 0.002 µM): 0.232 | relative viability ([4]; first compound 0.006325 µM): 0.151 | relative viability ([4]; first compound 0.02 µM): 0.118 | relative viability ([5]; first compound 0.0002 µM): 1 | relative viability ([5]; first compound 0.000632 µM): 1.02 | relative viability ([5]; first compound 0.002 µM): 1.35 | relative viability ([5]; first compound 0.006325 µM): 0.638 | relative viability ([5]; first compound 0.02 µM): 0.307 | relative viability ([6]; first compound 0.0002 µM): 0.583 | relative viability ([6]; first compound 0.000632 µM): 0.639 | relative viability ([6]; first compound 0.002 µM): 0.369 | relative viability ([6]; first compound 0.006325 µM): 0.298 | relative viability ([6]; first compound 0.02 µM): 0.23 | relative viability ([7]; first compound 0.0002 µM): 1.01 | relative viability ([7]; first compound 0.000632 µM): 1.06 | relative viability ([7]; first compound 0.002 µM): 0.878 | relative viability ([7]; first compound 0.006325 µM): 0.555 | relative viability ([7]; first compound 0.02 µM): 0.366 | relative viability ([8]; first compound 0.0002 µM): 0.888 | relative viability ([8]; first compound 0.000632 µM): 0.759 | relative viability ([8]; first compound 0.002 µM): 0.156 | relative viability ([8]; first compound 0.006325 µM): 0.124 | relative viability ([8]; first compound 0.02 µM): 0.0738 | relative viability ([9]; first compound 0.0002 µM): 0.751 | relative viability ([9]; first compound 0.000632 µM): 0.761 | relative viability ([9]; first compound 0.002 µM): 0.728 | relative viability ([9]; first compound 0.006325 µM): 0.259 | relative viability ([9]; first compound 0.02 µM): 0.122 | relative viability ([10]; first compound 0.0002 µM): 0.981 | relative viability ([10]; first compound 0.000632 µM): 0.992 | relative viability ([10]; first compound 0.002 µM): 0.706 | relative viability ([10]; first compound 0.006325 µM): 0.288 | relative viability ([10]; first compound 0.02 µM): 0.282 | relative viability ([11]; first compound 0.0002 µM): 0.728 | relative viability ([11]; first compound 0.000632 µM): 0.655 | relative viability ([11]; first compound 0.002 µM): 0.401 | relative viability ([11]; first compound 0.02 µM): 0.0824 | relative viability ([12]; first compound 0.0002 µM): 0.894 | relative viability ([12]; first compound 0.000632 µM): 0.677 | relative viability ([12]; first compound 0.002 µM): 0.467 | relative viability ([12]; first compound 0.006325 µM): 0.448 | relative viability ([12]; first compound 0.02 µM): 0.288 | relative viability ([13]; first compound 0.0002 µM): 0.908 | relative viability ([13]; first compound 0.000632 µM): 0.869 | relative viability ([13]; first compound 0.002 µM): 0.618 | relative viability ([13]; first compound 0.006325 µM): 0.533 | relative viability ([13]; first compound 0.02 µM): 0.181 | relative viability ([14]; first compound 0.0002 µM): 1.06 | relative viability ([14]; first compound 0.000632 µM): 0.699 | relative viability ([14]; first compound 0.002 µM): 0.201 | relative viability ([14]; first compound 0.02 µM): 0.154 | relative viability ([15]; first compound 0.0002 µM): 0.801 | relative viability ([15]; first compound 0.000632 µM): 0.712 | relative viability ([15]; first compound 0.002 µM): 0.38 | relative viability ([15]; first compound 0.006325 µM): 0.235 | relative viability ([15]; first compound 0.02 µM): 0.172 | relative viability ([16]; first compound 0.0002 µM): 0.796 | relative viability ([16]; first compound 0.000632 µM): 0.642 | relative viability ([16]; first compound 0.002 µM): 0.41 | relative viability ([16]; first compound 0.006325 µM): 0.309 | relative viability ([16]; first compound 0.02 µM): 0.222 | relative viability ([17]; first compound 0.000632 µM): 0.222 | relative viability ([17]; first compound 0.002 µM): 0.121 | relative viability ([17]; first compound 0.006325 µM): 0.154 | relative viability ([17]; first compound 0.02 µM): 0.0979 | relative viability ([18]; first compound 0.0002 µM): 0.875 | relative viability ([18]; first compound 0.000632 µM): 0.897 | relative viability ([18]; first compound 0.002 µM): 0.505 | relative viability ([18]; first compound 0.006325 µM): 0.261 | relative viability ([18]; first compound 0.02 µM): 0.19 | relative viability ([19]; first compound 0.0002 µM): 0.966 | relative viability ([19]; first compound 0.000632 µM): 0.984 | relative viability ([19]; first compound 0.002 µM): 0.963 | relative viability ([19]; first compound 0.006325 µM): 0.563 | relative viability ([19]; first compound 0.02 µM): 0.452 | relative viability ([20]; first compound 0.0002 µM): 0.766 | relative viability ([20]; first compound 0.000632 µM): 0.467 | relative viability ([20]; first compound 0.002 µM): 0.495 | relative viability ([20]; first compound 0.006325 µM): 0.26 | relative viability ([20]; first compound 0.02 µM): 0.228 | relative viability ([21]; first compound 0.0002 µM): 0.916 | relative viability ([21]; first compound 0.000632 µM): 0.753 | relative viability ([21]; first compound 0.002 µM): 0.253 | relative viability ([21]; first compound 0.006325 µM): 0.193 | relative viability ([21]; first compound 0.02 µM): 0.15
